Results taken from patent US11739083B2, “Disposable sensor chip with reagent including 2-substituted benzothiazolyl-3-substituted phenyl-5-substituted sulfonated phenyl-2H-tetrazolium salt” (TERUMO KABUSHIKI KAISHA, priority 2016, dated 2023).

Key:
[1] = Evaluation of water-solubility (visual check for precipitate); format: physicochemical; settings: RO water and 0.5 M MOPS pH 7.2; 200, 100, 20 mM; stirred 5 minutes
Protocol: After the mixture was stirred for 5 minutes, a precipitate was checked by visual inspection. […] After the mixture was stirred for 5 minutes, a precipitate was checked by visual inspection. […] After the mixture was stirred for 5 minutes, a precipitate was checked by visual inspection.

[2] = Maximum absorption wavelength (λmax) of formazan-nickel chelate by spectrophotometer; format: physicochemical; settings: chelate of formazan and nickel ion, aqueous MOPS, cell length 10 mm, n=1
Protocol: 10 mM aqueous solution of MOPS was added to each of the formazan compounds so as to obtain a final concentration of […], and thereby 100 μL of a sample was produced. At this time, all of the samples were red-brown in color. Apart from this, a 1 M aqueous solution of nickel ion was produced.
For mixed solutions of various compounds in an aqueous solution of formazan and an aqueous solution of nickel, the spectra were measured with a spectrophotometer (measurement cell length: 10 mm) (n=1). Based on each of the spectra, the maximum absorption wavelength (λmax) (nm) of each of the compounds in formazan was determined. From FIG. 1, it is understood that the maximum absorption wavelength (λmax) of the chelate compound of formazan compound 1 and nickel ion is 630 nm.
The absorbance at the maximum absorption wavelength is denoted as 100%.

[3] = Evaluation of sensitivity (colour development with glucose, GDH-FAD, m-PMS, nickel; gradient versus WST-4)
Protocol: Separately, 100 μL of RO water was added to 7 mg of a glucose dehydrogenase that uses flavin adenine dinucleotide (FAD) as a coenzyme (GDH-FAD) (manufactured by TOYOBO CO., LTD., product No.: GLD-351), the enzyme was dissolved, and thus a GDH solution was produced. Furthermore, 200 μL of RO water was added to 3.5 mg of 1-methoxy-5-methylphenazium methyl sulfate (m-PMS) (manufactured by DOJINDO LABORATORIES), and the compound was dissolved therein. Thus, an s-PMS solution was produced. 1 mL of RO water was added to 129 mg of nickel chloride to dissolve the salt, and thus a nickel solution was produced.
40 μL of the reaction solution was added to 10 μL each of an aqueous glucose solution at a concentration of 125 mg/dL, an aqueous glucose solution at a concentration of 250 mg/dL, and an aqueous glucose solution at a concentration of 1,000 mg/dL, and the mixtures were allowed to develop color. The spectra were measured with a spectrophotometer (measurement cell length: 50 μm) (n=1). […] Thus, the gradient (gradientsample) was determined.
40 μL of the control reaction solution was added to 10 μL each of an aqueous glucose solution at a concentration of 125 mg/dL, an aqueous glucose solution at a concentration of 250 mg/dL, and an aqueous glucose solution at a concentration of 1,000 mg/dL, and the mixtures were allowed to develop color. The spectra were measured with a spectrophotometer (measurement cell length: 50 μm) (n=1). For each of the spectra, the absorbance at 650 nm, which is the measurement wavelength (λmax) of WST-4, was measured, and the glucose concentration in the colored solution and the absorbance were plotted on the horizontal axis and the vertical axis, respectively. Thus, the gradient (gradientWST-4) was determined.
FIG. 2 is a graph showing the relationship between the glucose concentration and the absorbance of produced formazan in relation to the tetrazolium compound 1 and WST-4. […] Meanwhile, the gradient serves as an index for the color development intensity of each compound. Therefore, when the value obtained by dividing the gradientsample by the gradientWST-4 (gradientsample/gradientWST-4) is greater than one-fold, it is implied that the intensity of color development on the longer wavelength side is higher compared to WST-4, which is a well-known indicator reagent.

[4] = Evaluation of stability (absorbance increase of measurement solution over 6 hours); settings: FIG. 3; absorbance increase per hour over 6 hours
Protocol: To 0.02 mmol of each compound, 75 μL of RO water and 100 μL of a 0.5 M MOPS solution (pH 7.2) were added, and the compound was dissolved therein. The solution was used as a sample.
To 175 μL of this sample, 10 μL of the GDH solution, 5 μL of the m-PMS solution, and 10 μL of the nickel solution, all of which had been produced in the same manner as in the above section (Evaluation of sensitivity), were added, and thereby a measurement solution was produced.
As a control, 85 μL of RO water and 100 μL of a 0.5 M MOPS solution (pH 7.2) were added to 11.6 mg of 2-benzothiazolyl-3-(4-carboxy-2-methoxyphenyl)-5-[4-(2-sulfoethylcarbamoyl)phenyl]-2H-tetrazolium (WST-4), and the compound was dissolved. Thus, a control sample was produced. […] Thus, a control reaction solution was produced.
At the time of production of the measurement solution (0 hour), and after 1 hour, 2 hours, and 6 hours from the production, the spectra of the measurement solutions produced as described above were measured using a spectrophotometer (measurement cell length: 50 μm) (n=1). For each spectrum, the absorbance at the maximum absorption wavelength (λmax) of each compound as determined above was measured. The absorbances measured at the time of production of the measurement solution (0 hour) and after 6 hours from the production were designated as Abs0 h and Abs6 h, respectively. […]

2-benzothiazolyl-3-(4-carboxy-2-methoxyphenyl)-5-[4-(2-sulfoethylcarbamoyl)phenyl]-2H-tetrazolium [Comparative Example 5, reference compound]
Water-solubility [1]: ◯ (a precipitate was seen in the 200 mM aqueous solution, but there was no precipitate in the 100 mM aqueous solution) | Maximum absorption wavelength (λmax) [2]: No chelation | gradient (absorbance versus glucose concentration) ([3]; FIG. 2, compound 1 at its λmax with nickel, WST-4 at 650 nm without nickel): 0.0026 | Sensitivity, comparison with Comparative Example 5 (ratio) ([3]; gradientsample/gradientWST-4): 1 times | [(Abs6 h−Abs0 h)/6] value [4]: about 0.01
